Data reported in US20030064385A1, “Genes expressed in breast cancer as prognostic and therapeutic targets” (priority 2001, published 2003).

System: primary invasive breast cancer
Assay: Clinical tumor response (WHO criteria) in randomized Phase III neoadjuvant trial of letrozole versus tamoxifen; patients with profiled biopsies
Assay type: in vivo, human
Conditions: clinical outcome of patients with profiled pre-treatment biopsies; postmenopausal women; response by palpation at 4 months
Source text: Definitions of Objective Response Used in the Letrozole (FEMARA™) vs. Tamoxifen Comparison Study
1. Complete Response (CR): The disappearance of all known disease, determined by 2 observations not less than 4 weeks apart.
2. Partial Response (PR): A 50% or more decrease in total tumor size of the lesions which have been measured to determine the effect of therapy by 2 observations not less than 4 weeks apart. In addition there can be no appearance of new lesions or progression of any lesion.
4. Progressive Disease (PD): A 25% or more increase in the size of one or more measurable lesions, or the appearance of new lesions.
Clinical Response Assessment
The primary efficacy variable was tumor response, assessed by clinical examination using World Health Organization (WHO) criteria (see, WHO Handbook for Reporting Results of Cancer Treatment). It was defined as the percentage of patients in each treatment group with a CR or PR as determined clinically in the breast by palpation at 4 months. Possible responses were CR, PR, NC, PD or not assessable/not evaluable (NA/NE). Palpable ipsilateral axillary lymph nodal involvement downgraded a clinical CR in tumor. Other factors were also considered such the percentage of patients who underwent breast-conserving surgery (quadrantectomy/lumpectomy) instead of mastectomy. Patients who became inoperable, or who remained inoperable at 4 months, were counted as treatment failures.
Twenty-one RNA samples were extracted from 14-gauge needle core biopsies collected before initiation of neoadjuvant endocrine therapy from patients enrolled in a randomized Phase III trial of letrozole (FEMARA™, Novartis Pharma, Basal Switzerland) versus tamoxifen for postmenopausal women with primary invasive breast cancer ineligible for breast conserving surgery. RNA was extracted from an additional 30 primary breast adenocarcinomas collected in Sweden, one additional ESR1+breast tumor surgical biopsy, two HUVEC samples, two samples from glioblastoma cell line U373-MG and one MCF7 sample using Trizol (Life Technologies, Gaithersburg, Md.). The clinical samples were collected after informed consent had been obtained according to protocols approved by local ethics committees. RNA was purchased for two samples, an infiltrating Stage III duct carcinoma (Ambion, Austin, Tex.) and a pool of two normal breast tissues (Clontech, Palo Alto, Calif.). The total number of samples prepared was 59 including 53 breast cancer biopsies and one pooled normal breast sample. Total RNA was purified using QIAGEN RNEASY™ columns (Qiagen, Valencia, Calif.), processed and hybridized to the HUGENE™ FL 6800 Array (Affymetrix, Santa Clara, Calif.), as described by Lockhart et al., Nat. Biotechnol., Vol. 14, pp. 1675-1680 (1996).
In another aspect of the invention 136 breast biopsies from 53 patients were obtained. RNA was extracted from 116 biopsies. Expression profiles were generated for 43 biopsies from 35 patients. Predictive markers of endocrine therapy responsiveness in breast tumors were identified. The breakdown of the profiled biopsies from the pre-letrozole (FEMARA™) treatments and the patient's clinical outcome was as follows: four patients with CR, nine patients with PR, four patients with NC and four patients with PD.
For the group treated with tamoxifen there were no patients in the CR category, 10 patients with PR, seven patients with NC and four patients with PD.

Row | SMILES | patients with CR (complete response) | patients with NC (no change) | patients with PD (progressive disease) | patients with PR (partial response)
1 | CC/C(=C(\c1ccccc1)c1ccc(OCCN(C)C)cc1)c1ccccc1 [tamoxifen] | no patients | seven | four | 10 patients
2 | N#Cc1ccc(C(c2ccc(C#N)cc2)n2cncn2)cc1 [letrozole] | four | four | four | nine
